According to patent publication EP0585371B1, “AROMATIC OLIGOMERIC COMPOUNDS USEFUL AS MIMICS OF BIOACTIVE MACROMOLECULES” (RHONE-POULENC RORER INTERNATIONAL (HOLDINGS) INC., priority 1991, dated 1992):
Where “and” joins values, the source holds several entries; their conditions need not be identical. Identical values can stand only once. Like-named read-outs stand apart in the source and are kept apart here.

Key:
vWF Binding to Gp1b = target: T1, vWF Binding to Gp1b (Homo sapiens, UniProt P04275+P07359); test: Inhibition of ristocetin-induced binding of 125I-vWF to formalin-fixed platelets; conditions: at 100 µg/ml; ristocetin 1.0 mg/ml
T1 construct: multimeric vWF (isolated from human plasma cryoprecipitate); Formalin-fixed platelets, prepared according to the method of MacFarlane; from tissue; host or cells: vWF from human plasma cryoprecipitate; GPIb on formalin-fixed platelets
Description: The binding of vWf (vonWillebrand Factor) to glycoprotein Ib is measured in one of two experimental systems, in the presence of either ristocetin or botrocetin as modulators of binding. The ristocetin modulated binding is described herein.
Formalin-fixed platelets, prepared according to the method of MacFarlane, D. et al., Thromb. Diath. Haemorrh. 34, 306-308 (1975), were preincubated at room temperature for 15 minutes with specified dilutions of oligomers according to the present invention. Ristocetin, (Sigma, St. Louis, MO) diluted to a final concentration of 1.0 mg/ml, and ^125I-labelled multimeric vWF (isolated from human plasma cryoprecipitate according to the method of Fulcher, C.A. et al. Proc. Natl. Acad. Sci. USA, 79, 1648-1652 (1982), and labelled according to the method of Fraker, P.J. et al. Biochem. Biophys. Res. Commun., 80, 849-857 (1978)) were then added to the incubation mixture, and the amount of ^125I- vWF bound to the platelets was determined. ^125I-vWF binding to the platelets was referenced against 100% binding which was defined as the amount of ^125I- vWF bound in the absence of added oligomer compound. The method for measuring vWF binding is reported in detail in Ruggeri et al., J. Clin. Invest., 72, 1-12, (1983), herein incorporated by reference.

[1] = target: T2, Human neutrophil elastase (Homo sapiens, UniProt P08246); test: Human Granulocyte Elastase Inhibition Assay; format: biochemical; conditions: substrate S-2484, pH 8.3
T2 construct: purchased ICN Biochemical
T2 sequence (P08246 30-267): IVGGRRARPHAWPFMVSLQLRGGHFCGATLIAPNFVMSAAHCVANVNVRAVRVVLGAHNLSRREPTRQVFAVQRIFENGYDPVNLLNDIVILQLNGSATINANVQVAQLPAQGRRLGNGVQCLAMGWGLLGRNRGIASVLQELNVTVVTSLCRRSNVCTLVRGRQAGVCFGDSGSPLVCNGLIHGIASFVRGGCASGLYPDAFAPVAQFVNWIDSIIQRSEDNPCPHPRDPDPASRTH
Description: The Human Granulocyte Elastase Inhibition assay is a standard test procedure and is essentially that of Kramps, et al., "L-Pyroglutamyl-L-prolyl-L-valine-p-nitroanilide, a highly specific substrate for granulocyte elastase", Scand. J. clin. Lab. Invest. 43, 427-432 (1983).
A stock solution of 8.0 mM L-pyroglutamyl-L-prolyl-L-valine-p-nitroanilide (S-2484, obtained from Kabi) in dimethylsulfoxide is diluted to 2.0 mM in 0.03 M Tris buffer, pH 8.3, to give the working substrate solution. Human neutrophil elastase (obtained from ICN Biochemical) is diluted in the same buffer to 1 unit/ml to give the working enzyme solution.
A control assay is run in which a solution of 10 µl of buffer and 10µl of working enzyme solution is incubated at room temperature for 1 minute and 330 µl of buffer and 50 µl of working substrate solution is then added. The increase in absorbance (ΔOD/min) at 405 nm is measured.
In the experimental assay 10µl of a solution containing a compound of the present invention (in concentrations ranging from 1 mg/ml to 0.1 µg/ml), or other inhibitor to be tested, in buffer is substituted for the 10 µl of buffer with which the enzyme is incubated in the control assay and the procedure followed as for the control assay above. The ΔOD/min is measured and the result expressed as percentage inhibition for the given concentration of inhibitor as compared with the ΔOD/min for the control. Percent inhibition versus concentration of compound of the present invention or other inhibitor is plotted and the data extrapolated to give the concentration required for 50% inhibition of the enzyme (IC50).

normal pooled plasma = test: Anticoagulation activity, Activated Partial Thromboplastin Time (APTT) test; conditions: concentration required to double clotting time
Description: The following test measures anticoagulant activity of the oligomers of the present invention and utilizes the Activated Partial Thromboplastin Time (APTT) test, with the following procedures.
To an assay cuvette is added 100 µl of normal pooled plasma (George King Biomedical Inc., Kansas) and […] of a solution containing the test compound in aqueous 50 mM Tris hydrochloride at pH 7.5 (0.2 mg of sample in one ml buffer). The sample is placed in a MLA coagulation timer which automatically maintains the sample at 37°C for 2.5 minutes, 100 µl of actin activated cephaloplastin reagent is injected, kept 5 minutes, 100 µl of 35 mM CaCI is injected, and clot formation is determined photometrically and the clotting time recorded. Each example is examined at a variety of concentrations, generally from about .025 mg/ml to about 1 mg/ml, and the clotting times are graphed as a function of concentration. From the graphic results, the concentration required to double clotting time (ICDCT) is calculated by linear interpolation.

[2] = target: T3, ESb mouse lymphoma heparanase (Mus musculus, UniProt Q6YGZ1); test: Inhibition of heparanase activity (degradation of labeled ECM heparan sulfate); format: biochemical; conditions: 24 hours incubation with labeled ECM
T3 construct: endogenous in cells; host or cells: ESb mouse lymphoma cells
T3 sequence (Q6YGZ1 28-535): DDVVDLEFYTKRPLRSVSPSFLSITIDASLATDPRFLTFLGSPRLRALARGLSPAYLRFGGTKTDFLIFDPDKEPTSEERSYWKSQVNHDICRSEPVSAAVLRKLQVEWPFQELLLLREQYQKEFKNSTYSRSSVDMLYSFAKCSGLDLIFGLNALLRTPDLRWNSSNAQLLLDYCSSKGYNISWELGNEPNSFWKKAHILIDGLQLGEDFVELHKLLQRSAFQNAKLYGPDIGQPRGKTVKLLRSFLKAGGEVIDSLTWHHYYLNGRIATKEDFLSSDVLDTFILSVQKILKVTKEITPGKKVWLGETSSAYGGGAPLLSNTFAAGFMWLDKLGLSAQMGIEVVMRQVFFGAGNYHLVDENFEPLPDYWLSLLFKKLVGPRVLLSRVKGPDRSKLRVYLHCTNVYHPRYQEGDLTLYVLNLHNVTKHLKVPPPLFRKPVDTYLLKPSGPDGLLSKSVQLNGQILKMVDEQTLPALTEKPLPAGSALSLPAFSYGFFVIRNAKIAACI
Description: Heparanase is an endoglucuronidase capable of degrading […] (HS) at specific intrachain sites.
The ability of compounds of the present invention to inhibit lymphomacell derived heparanase is tested in the assay system described by Vlodavsky et al., Cancer Research 43, 2704-2711 (1983). […] labeled ECM is incubated for 24 hours with ESb mouse lymphoma heparanase in the presence of various concentrations of the oligomers tested. Degradation of the HS is followed by gel filtration of the supematants. Heparanase activity is expressed as the total amount of labeled low-molecular-weight fragments released from the EMC substrate.

[3] = system: human fixed thrombin activated platelets; test: Platelet aggregation inhibition (fibrinogen-induced); format: cell-based; conditions: human fibrinogen added
Description: The method for measuring platelet aggregation inhibition is essentially that of Ruggeri, et al., Proc. Natl. Acad. Sci. USA, 83, 5708-5712 (1986), using formalin-fixed platelets as prepared by Plow, et al., Proc. Natl. Acad. Sci. USA, 79, 3711-3715 (1982). A given amount of the compound of the present invention or other compound to be tested (10 to 100 µl of a 1 mg/ml solution) is incubated at 37°C with 400 µl of human fixed thrombin activated platelets for 2 minutes. 12.5 µl of human fibrinogen solution is added and aggregation is monitored using a platelet aggregation profiler (Model PAP-4). Controls consist of fibrinogen added to incubated platelets and the resulting aggregation is considered as 100%. Percent inhibition in the presence of a given concentration of test compound versus concentration of the compound is plotted and the concentration required to give 50% inhibition (IC50) is determined.

T1 sequence (P04275 764-2813 limits assumed): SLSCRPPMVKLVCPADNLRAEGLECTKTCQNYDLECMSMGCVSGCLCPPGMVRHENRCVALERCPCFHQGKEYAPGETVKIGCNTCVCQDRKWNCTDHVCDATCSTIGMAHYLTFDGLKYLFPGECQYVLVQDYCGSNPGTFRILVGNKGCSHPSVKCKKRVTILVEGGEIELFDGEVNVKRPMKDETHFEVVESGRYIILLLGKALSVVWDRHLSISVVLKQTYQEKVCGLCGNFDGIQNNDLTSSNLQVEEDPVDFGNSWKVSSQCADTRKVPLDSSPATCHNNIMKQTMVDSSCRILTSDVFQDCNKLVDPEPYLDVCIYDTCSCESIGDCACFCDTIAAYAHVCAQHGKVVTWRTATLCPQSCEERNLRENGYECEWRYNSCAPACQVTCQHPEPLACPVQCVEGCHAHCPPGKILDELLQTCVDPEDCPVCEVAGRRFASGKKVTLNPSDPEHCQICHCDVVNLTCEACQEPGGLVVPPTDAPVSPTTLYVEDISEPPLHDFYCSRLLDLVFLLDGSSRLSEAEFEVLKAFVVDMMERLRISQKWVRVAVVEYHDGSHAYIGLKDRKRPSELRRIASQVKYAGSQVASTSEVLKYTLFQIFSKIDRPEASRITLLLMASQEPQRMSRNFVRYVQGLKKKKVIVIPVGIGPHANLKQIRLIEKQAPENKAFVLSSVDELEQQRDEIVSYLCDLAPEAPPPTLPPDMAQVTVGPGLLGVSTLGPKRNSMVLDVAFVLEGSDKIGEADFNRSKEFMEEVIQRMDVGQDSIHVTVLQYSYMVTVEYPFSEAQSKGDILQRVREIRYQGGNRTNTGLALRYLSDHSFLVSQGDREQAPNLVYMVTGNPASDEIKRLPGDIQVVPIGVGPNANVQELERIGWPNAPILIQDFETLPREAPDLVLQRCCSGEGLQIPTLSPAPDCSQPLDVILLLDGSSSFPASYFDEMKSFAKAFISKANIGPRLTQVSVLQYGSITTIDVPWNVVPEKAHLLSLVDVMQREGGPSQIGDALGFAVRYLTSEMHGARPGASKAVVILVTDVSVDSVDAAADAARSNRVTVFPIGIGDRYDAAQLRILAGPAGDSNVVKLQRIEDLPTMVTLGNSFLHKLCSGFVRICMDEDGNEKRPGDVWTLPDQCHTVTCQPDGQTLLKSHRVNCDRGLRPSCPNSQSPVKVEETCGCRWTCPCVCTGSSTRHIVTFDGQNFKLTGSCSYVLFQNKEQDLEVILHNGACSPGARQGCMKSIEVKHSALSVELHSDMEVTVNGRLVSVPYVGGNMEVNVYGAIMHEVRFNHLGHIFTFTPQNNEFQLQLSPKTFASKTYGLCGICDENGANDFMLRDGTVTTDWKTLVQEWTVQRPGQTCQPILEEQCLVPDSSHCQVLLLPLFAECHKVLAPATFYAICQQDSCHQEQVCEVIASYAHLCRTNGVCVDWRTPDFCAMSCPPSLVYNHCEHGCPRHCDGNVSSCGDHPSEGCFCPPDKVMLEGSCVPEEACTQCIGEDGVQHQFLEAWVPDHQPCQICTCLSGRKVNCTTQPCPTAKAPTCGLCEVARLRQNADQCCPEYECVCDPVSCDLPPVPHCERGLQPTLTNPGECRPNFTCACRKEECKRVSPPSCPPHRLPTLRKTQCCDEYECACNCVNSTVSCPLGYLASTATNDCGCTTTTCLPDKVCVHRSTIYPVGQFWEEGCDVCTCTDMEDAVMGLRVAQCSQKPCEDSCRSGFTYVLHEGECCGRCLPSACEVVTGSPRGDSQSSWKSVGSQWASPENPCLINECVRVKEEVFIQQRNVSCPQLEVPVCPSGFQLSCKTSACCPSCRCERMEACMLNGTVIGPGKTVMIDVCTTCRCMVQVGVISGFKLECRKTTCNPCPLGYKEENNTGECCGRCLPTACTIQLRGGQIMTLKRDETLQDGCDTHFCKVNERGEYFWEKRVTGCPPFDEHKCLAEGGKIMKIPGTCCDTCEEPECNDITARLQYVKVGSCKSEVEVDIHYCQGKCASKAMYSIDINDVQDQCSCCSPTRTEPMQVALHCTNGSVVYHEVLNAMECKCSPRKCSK
T1 sequence (P07359 17-652): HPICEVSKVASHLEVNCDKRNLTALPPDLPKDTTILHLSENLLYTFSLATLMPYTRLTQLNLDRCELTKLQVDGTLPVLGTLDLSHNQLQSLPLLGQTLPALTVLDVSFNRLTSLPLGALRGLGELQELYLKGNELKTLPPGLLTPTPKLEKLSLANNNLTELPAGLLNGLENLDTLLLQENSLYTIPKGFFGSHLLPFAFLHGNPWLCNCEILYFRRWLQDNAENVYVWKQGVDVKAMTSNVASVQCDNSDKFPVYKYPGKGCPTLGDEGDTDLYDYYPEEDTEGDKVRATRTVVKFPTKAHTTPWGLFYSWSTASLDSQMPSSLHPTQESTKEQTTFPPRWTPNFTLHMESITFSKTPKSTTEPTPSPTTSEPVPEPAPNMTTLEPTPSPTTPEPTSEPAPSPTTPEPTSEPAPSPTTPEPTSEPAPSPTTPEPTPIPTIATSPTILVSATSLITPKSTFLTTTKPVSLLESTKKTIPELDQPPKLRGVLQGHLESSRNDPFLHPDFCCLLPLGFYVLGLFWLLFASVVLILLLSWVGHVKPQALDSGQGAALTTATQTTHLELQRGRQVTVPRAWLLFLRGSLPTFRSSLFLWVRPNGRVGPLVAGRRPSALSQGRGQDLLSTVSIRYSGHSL

Structure (SMILES)	IC50 ([1]; read-out: IC50 (converted))	APTT ICDCT (normal pooled plasma)	further results
O=C(O)CCc1cc(Cc2cc(O)ccc2CCC(=O)O)c(O)cc1CCc1cc(O)c(Cc2cc(O)ccc2CCC(=O)O)cc1CCC(=O)O [Ex 3, 1,2-bis-[2-(2-carboxyethyl)-4-[2-(2-carboxyethyl)-5-hydroxybenzyl]-5-hydroxyphenyl]ethane]	> 1400 nM	700 µg/mL	inhibition at 100 µg/mL (vWF Binding to Gp1b): 21%
COc1cc(CCc2cc(OC)c(Cc3cc(OC)c(Cc4cc(OC)c(Cc5cc(OC)c(Cc6cc(OC)c(Cc7cc(OC)c(Cc8cc(OC)c(Cc9cc(O)ccc9CCC(=O)O)cc8CCC(=O)O)cc7CCC(=O)O)cc6CCC(=O)O)cc5CCC(=O)O)cc4CCC(=O)O)cc3CCC(=O)O)cc2CCC(=O)O)c(CCC(=O)O)cc1Cc1cc(OC)c(Cc2cc(OC)c(Cc3cc(OC)c(Cc4cc(OC)c(Cc5cc(OC)c(Cc6cc(OC)c(Cc7cc(O)ccc7CCC(=O)O)cc6CCC(=O)O)cc5CCC(=O)O)cc4CCC(=O)O)cc3CCC(=O)O)cc2CCC(=O)O)cc1CCC(=O)O [Ex 9, 1,2-bis-[4-[4-[4-[4-[4-[4-[4-[[2-(2-carboxyethyl)-5-hydroxy]benzyl]-[2-(2-carboxyethyl)-5-methoxy]benzyl]-[2-(2-carboxyethyl)-5-methoxy]benzyl]-[2-(2-carboxyethyl)-5-methoxy]benzyl]-[2-(2-carboxyethyl)-5-methoxy]benzyl]-[2-(2-carboxyethyl)-5-methoxy]benzyl]-[2-(2-carboxyethyl)-5-methoxy]benzyl]-[2-(2-carboxyethyl)-5-methoxy]phenyl]ethane]		105 µg/mL	% Inhibition of Heparanase Activity (5µg/ml) [2]: 52%; Platelet Aggregation IC50 [3]: 319 µg/mL
O=C(O)COc1cc(Cc2cc(OCc3ccccc3)c(Cc3cc(OCc4ccccc4)c(Cc4cc(O)ccc4OCC(=O)O)cc3OCC(=O)O)cc2OCC(=O)O)c(OCc2ccccc2)cc1CO [Ex 16, 4-benzyloxy-5-[4-[4-[[2-carboxymethyloxy-5-hydroxy]benzyl]-[5-benzyloxy-2-carboxymethyloxy]benzyl]-[5-benzyloxy-2-carboxymethyloxy]benzyl]-2-hydroxymethylphenoxyacetic acid]	330 nM and 327 nM	360 µg/mL	
O=C(O)COc1cc(Cc2cc(O)ccc2OCC(=O)O)c(O)cc1CCc1cc(O)c(Cc2cc(O)ccc2OCC(=O)O)cc1OCC(=O)O [Ex 17, 1 ,2-bis-[[2-carboxymethyloxy-5-hydroxy-4-(5-hydroxy-2-carboxymethyloxy)benzyl]phenyl]ethane]	135 nM and 134 nM	580 µg/mL	
O=C(O)COc1cc(Cc2cc(OCc3ccccc3)ccc2OCC(=O)O)c(O)cc1CCc1cc(O)c(Cc2cc(OCc3ccccc3)ccc2OCC(=O)O)cc1OCC(=O)O [Ex 20, 1,2-bis-[[2-carboxymethyloxy-5-hydroxy-4-(5-benzyloxy-2-carboxymethyloxy)benzyl]phenyl]ethane]		555 µg/mL	IC50 [1]: 780 nM and 779 nM
CCc1cc(OCC(=O)O)cc(Cc2cc(OCC(=O)O)cc(Cc3cc(OCC(=O)O)cc(Cc4cc(OCC(=O)O)ccc4OC)c3OC)c2OC)c1OC [Ex 22, 5-[3-[3-[[5-carboxymethyloxy-2-methoxy]benzyl]-[5-carboxymethyloxy-2-methoxy]benzyl]-[5-carboxymethyloxy-2-methoxy]benzyl]-3-ethyl-4-methoxyphenoxyacetic acid]		>315 µg/mL	IC50 ([1]; unit printed in the cell of the nM column, read-out: IC50 (converted)): > 3e+06 nM
